Results published in ChEMBL document CHEMBL1151305, “The biotransformation of some clovanes by botrytis cinerea” (J Nat Prod, 1998).
Active and inactive are the calls of the source. The rule behind the calls is not given here.

Tested on: Botrytis cinerea
Experiment: Antifungal activity against Botrytis cinerea assessed as inhibition of radical growth by poisoned-food technique
Assay type: functional, organism-based

For `CO[C@H]1CC(C)(C)[C@@H]2CC[C@@]3(C)C[C@]12CC[C@H]3O`, the Activity was “Active”.
